Measured values published in PubChem BioAssay (NCI).
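Growth conditions: 96-well plates. Treatment: test compound, 48 hours, 5 concentrations. Analysis: linear interpolation between bracketing concentrations; unreached endpoints set to highest concentration. GI50 marks 50% less growth. TGI: concentration producing complete growth inhibition.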

Legend:
Assay in all cases: NCI anticancer screen, dose series, 48 h
[1] = tested on: 786-0 renal
[2] = tested on: HL-60(TB) leukemia
[3] = tested on: HOP-92 NSCLC
[4] = tested on: MDA-MB-231 breast
[5] = tested on: MOLT-4 leukemia
[6] = tested on: TK-10 renal
[7] = tested on: BT-549 breast
[8] = tested on: NCI-H460 lung
[9] = tested on: SK-MEL-28 melanoma
[10] = tested on: IGROV1 ovarian
[11] = tested on: SF-539 CNS
[12] = tested on: UACC-257 melanoma
[13] = tested on: UO-31 renal
[14] = tested on: CCRF-CEM leukemia
[15] = tested on: LOX IMVI melanoma
[16] = tested on: M14 melanoma
[17] = tested on: OVCAR-5 ovarian
[18] = tested on: OVCAR-4 ovarian
[19] = tested on: MALME-3M melanoma
[20] = tested on: NCI-H23 lung
[21] = tested on: SW-620 colon
[22] = tested on: HCT-116 colon
[23] = tested on: OVCAR-3 ovarian
[24] = tested on: EKVX NSCLC
[25] = tested on: HT29 colon
[26] = tested on: SR leukemia
[27] = tested on: U251 CNS
[28] = tested on: HOP-62 NSCLC
[29] = tested on: SNB-75 CNS

COc1ccc(N=Nc2ccc(O)c(=O)cc2)cc1
TGI [1]: > 100 µM | GI50 [2]: 3.55 µM | TGI [2]: > 100 µM | GI50 [3]: 2.66 µM | TGI [3]: > 100 µM | GI50 [4]: 4.62 µM | TGI [4]: > 100 µM | GI50 [5]: 3.69 µM | TGI [5]: > 100 µM | GI50 [6]: 5.8 µM | TGI [6]: > 100 µM | GI50 [7]: 2.03 µM | TGI [7]: 11.6 µM | GI50 [8]: 1.79 µM | TGI [8]: 18.9 µM | GI50 [9]: 3.06 µM | TGI [9]: 31.6 µM | GI50 [10]: 3.86 µM | TGI [10]: > 100 µM | GI50 [11]: 3.16 µM | TGI [11]: 11.5 µM | GI50 [12]: 3.12 µM | TGI [12]: > 100 µM | GI50 [13]: 2.91 µM | TGI [13]: > 100 µM | GI50 [14]: 2.18 µM | TGI [14]: 9.94 µM | GI50 [15]: 2.44 µM | TGI [15]: 27 µM | GI50 [16]: 2.22 µM | TGI [16]: 7.42 µM | GI50 [17]: 5.89 µM | TGI [17]: > 100 µM | GI50 [18]: 5.05 µM | TGI [18]: > 100 µM | GI50 [19]: 2.86 µM | TGI [19]: 14.2 µM | GI50 [20]: 3.02 µM | TGI [20]: > 100 µM | GI50 [21]: 4.08 µM | TGI [21]: > 100 µM | GI50 [22]: 2.58 µM | TGI [22]: 15.4 µM | GI50 [23]: 3.64 µM | TGI [23]: > 100 µM | GI50 [24]: 4.3 µM | TGI [24]: > 100 µM | GI50 [25]: 4.83 µM | TGI [25]: 49.7 µM | GI50 [26]: 3.79 µM | TGI [26]: > 100 µM | GI50 [27]: 3.2 µM | TGI [27]: > 100 µM | GI50 [28]: 4.19 µM | TGI [28]: 41.8 µM | GI50 [29]: 3.43 µM | TGI [29]: > 100 µM
